Data: the NIST ThermoML archive (doi:10.1021/je0301489)
Several values for one entry are separate records, joined by “and”; a condition that tells them apart may be missing. Equal values may be shown once. ± gives the expanded uncertainty stated by the source.

Legend:
[1] = 101.33 kPa, Liquid
[2] = refractive index (Na D-line) (dimensionless); conditions: 101.33 kPa, Liquid

Structure (SMILES) | mass density ([1]; 298.15 K) | speed of sound ([1]; 298.15 K) | viscosity ([1]; 298.15 K) | mass density ([1]; 303.15 K) | viscosity ([1]; 303.15 K) | mass density ([1]; 308.15 K) | viscosity ([1]; 308.15 K) | refractive index ([2]; 298.15 K) | refractive index ([2]; 303.15 K) | refractive index ([2]; 308.15 K)
CCOC(=O)CC(C)=O [ethyl 3-oxobutanoate] | 1020.9 ± 1.1 kg/m3 | 1331 ± 3 m/s | 1.48 ± 0.019 mPa·s | 1014.9 ± 1.2 kg/m3 | 1.339 ± 0.017 mPa·s | 1010.2 ± 1.2 kg/m3 | 1.239 ± 0.016 mPa·s | 1.4166 ± 0.0007 | 1.4145 ± 0.0007 | 1.412 ± 0.0007
CCOC(=O)C(=O)OCC [diethyl ethanedioate] | 1072.9 ± 1.1 kg/m3 | 1276 ± 3 m/s | 1.759 ± 0.021 mPa·s | 1066.2 ± 1.1 kg/m3 | 1.581 ± 0.019 mPa·s | 1060.8 ± 1.2 kg/m3 | 1.437 ± 0.017 mPa·s | 1.4084 ± 0.0006 | 1.406 ± 0.0006 | 1.4034 ± 0.0006
CCCCCCCCOC(=O)c1ccccc1C(=O)OCCCCCCCC [dioctyl 1,2-benzenedicarboxylate] | 980.7 ± 1 kg/m3 | 1421 ± 3 m/s | 43.03 ± 0.7 mPa·s | 977.1 ± 1 kg/m3 | 30.18 ± 0.5 mPa·s | 973.1 ± 1 kg/m3 | 21.88 ± 0.37 mPa·s | 1.485 ± 0.0025 | 1.4831 ± 0.0025 | 1.481 ± 0.0025
C1COCCO1 [1,4-dioxane] | 1027.6 ± 1.1 kg/m3 | 1347 ± 3 m/s and 1348 ± 3 m/s | 1.166 ± 0.015 mPa·s and 1.167 ± 0.015 mPa·s | 1021.9 ± 1.2 kg/m3 | 1.069 ± 0.014 mPa·s | 1016.2 ± 1.2 kg/m3 | 0.984 ± 0.013 mPa·s | 1.4201 ± 0.0007 and 1.4202 ± 0.0007 | 1.417 ± 0.0007 | 1.4144 ± 0.0007
